Data from patent publication US11142524B2, “Substituted-3H-imidazo[4,5-c]pyridine and 1H-pyrrolo[2,3-c]pyridine series of novel Ectonucleotide Pyrophosphatase/Phosphodiesterase-1 (ENPP1) and stimulator for interferon genes (STING) modulators as cancer immunotherapeutics” (Stingray Therapeutics, Inc., priority 2018, dated 2021).

Columns and labels:
ENPP1 protein [1] = molecular target: T1, ENPP1 protein (Homo sapiens (Human), UniProt P22413); assay: ENPP1 Thermal Shift Assay (Example 1); assay type: binding
Procedure: Assay Buffer (1 mM CaCl2, 0.2 mM ZnCl2, 50 mM Tris, pH 9.0) 5000×SYPRO Orange (ThermoFisher cat #S6651) 384-well PCR Plates
Each drug was prepared as a 10× solution in the assay buffer and SYPRO Orange was diluted to 10× concentration in water. Wells were set up in duplicate in a 384-well PCR plate as follows: 14 μL assay buffer, 2 μL ENPP1 Inhibitor or DMSO, 2 μL (0.5 μg) ENPP1 protein. Each well was mixed and incubated on ice for 5 minutes. Post incubation, 2 μL of SYPRO Orange was mixed into each well and followed by a gentle centrifugation. The protein melt reaction was run using ViiA7 software with temperatures beginning at 25° C. and increasing by 0.05° C./s to the maximum temperature of 99° C.
In a 384-well plate, 1.0 μg of ENPP1 protein incubated with 100 μM of the corresponding drug for 5 minutes. Each well exposed to increasing temperatures to determine an unfolding temperature of the protein.
Target sequence in this assay (P22413 whole entry, looked up, change not shown): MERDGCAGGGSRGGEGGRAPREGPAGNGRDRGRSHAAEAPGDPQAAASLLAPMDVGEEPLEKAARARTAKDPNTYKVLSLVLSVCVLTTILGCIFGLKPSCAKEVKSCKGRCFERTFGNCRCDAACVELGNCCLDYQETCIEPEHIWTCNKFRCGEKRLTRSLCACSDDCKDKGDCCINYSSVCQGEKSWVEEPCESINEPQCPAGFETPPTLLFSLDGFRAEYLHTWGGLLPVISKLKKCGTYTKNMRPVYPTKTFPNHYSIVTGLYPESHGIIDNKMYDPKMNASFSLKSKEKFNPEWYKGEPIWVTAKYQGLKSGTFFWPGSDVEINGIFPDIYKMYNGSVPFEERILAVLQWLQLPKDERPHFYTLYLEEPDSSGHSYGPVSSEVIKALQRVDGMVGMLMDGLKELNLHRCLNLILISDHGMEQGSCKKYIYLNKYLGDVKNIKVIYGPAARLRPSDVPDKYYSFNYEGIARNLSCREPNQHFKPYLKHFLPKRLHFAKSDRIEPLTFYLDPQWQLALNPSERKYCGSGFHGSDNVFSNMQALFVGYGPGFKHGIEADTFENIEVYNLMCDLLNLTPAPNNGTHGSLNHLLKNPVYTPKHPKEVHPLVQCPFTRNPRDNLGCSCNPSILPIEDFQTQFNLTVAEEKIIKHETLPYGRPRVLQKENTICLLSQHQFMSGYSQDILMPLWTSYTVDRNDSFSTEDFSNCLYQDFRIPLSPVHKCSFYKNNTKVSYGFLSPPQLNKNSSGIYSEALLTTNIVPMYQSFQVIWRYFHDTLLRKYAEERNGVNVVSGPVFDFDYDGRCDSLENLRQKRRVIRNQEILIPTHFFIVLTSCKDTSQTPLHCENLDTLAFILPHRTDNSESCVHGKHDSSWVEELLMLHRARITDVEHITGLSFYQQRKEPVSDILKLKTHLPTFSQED

Saos-2 Cells = assay: ENPP1 Mineralization Assay; assay type: cell-based; details: FIG. 9, mineralization components for 3 days
Procedure: Saos-2 Cells (ATCC CAT #HTB-85). Culture Medium. 24-well Tissue Culture Plate. Ascorbic Acid, 5 mg/mL (100×). β-Glycerophosphate, 1M (100×). Phosphate Buffered Saline. Alizarin Red, 40 mM pH 4.2. 70% Ethanol. Dye Extraction Reagent, 10% Methanol+10% Acetic Acid
Saos-2 cells were plated at a density of 1.5×10^6 cells/well and allowed to grow to 100% confluency over the following 1-2 days. Once completely confluent, the media was replaced with fresh media supplemented with 1× ascorbic acid, 1× β-glycerophosphate, and varying concentrations of ENPP1 inhibitor (if applicable). The addition of the mineralization components was considered Day 1. On Day 3, the media was gently aspirated with no wash followed by the addition of fresh media, mineralization components, and ENPP1 inhibitor (if applicable). On day 5, the media was gently aspirated and the cells were washed twice with PBS. The cells were then fixed with ice cold 70% ethanol for 1 hour at 4° C. Cells were washed once with PBS and stained with Alizarin Red for 30 minutes at room temperature with gentle rotation. Stained cells were washed three times with water for 10 minutes at room temperature with gentle rotation. After imaging cells, dye extraction reagent was added to each well and incubated for 30 minutes at room temperature. Alizarin red was quantified by measuring absorbance at a wavelength of 405 nm using the Envision.
FIG. 9 depicts a picture of results of a similar SAOS-2 mineralization assay. SAOS-2 cell were cultured in the presence and absence of ENPP1 inhibitor (compound 78, 107-02 or 108) and exposed to mineralization components for 3 days.

[2] = test system: IRF-3 reporter in THP1 WT and STING knockout cells; assay: THP1 IRF-3 Reporter Assay; assay type: cell-based; details: 10 μM, primed with 2′3′cGAMP, 24 hours (FIG. 10) or 72 hours (FIG. 11)
Procedure: FIGS. 10 and 11 depict results of a THP1 IRF-3 Reporter Assay. THP1 WT and STING knockout cells were primed with 2′3′cGAMP and treated with 10 μM ENPP1 inhibitors for 24 hours (FIG. 10) or 72 hours (FIG. 11). Media collected to determine induction of IRF-3 reporter using luminescence reagent QuantiLuc.

ENPP1 protein [3] = molecular target: T1, ENPP1 protein; assay: ENPP1 enzymatic assay with TMP substrate (FIG. 8); assay type: biochemical; details: 5.0 ng ENPP1, 150 μM TMP substrate
Procedure: FIG. 8 depicts results of a similar experiment. 5.0 ng of ENPP1 protein exposed to increasing doses of inhibitor (compound 78 or compound 107-02) for 10 minutes in solution, followed by the addition of 150 μM of TMP substrate. The assay was then incubated for 20 minutes and then read at 405 nm on the envision plate reader.
Target sequence in this assay (P22413 whole entry, looked up): as the sequence (P22413 whole entry, looked up, change not shown) above

[4] = molecular target: T2, Recombinant Human ENPP-1 Protein (purified in-house) (Homo sapiens (Human), UniProt P22413); assay: ENPP1 Assay (TMP), Example 2; assay type: biochemical; details: Table 5, TMP substrate; read-out: ENPP1 (IC50 μM) TMP
Procedure: Enzyme: 1 ng/μL Recombinant Human ENPP-1 Protein (purified in-house)—Assay Conc.: 5 ng/well of DMSO in 96-well clear assay plates.
(§1) A ten point serial dilution of drugs was prepared in 10× in assay buffer with the final assay concentrations starting at 10 μM, 3 μM, 1 μM, 0.3 μM . . . 0 μM. A dilution of DMSO was included as a control. The assay plate was set up as follows with each well in duplicate: 75 μL assay buffer+10 μL ENPP1 inhibitor or DMSO Dilutions+10 μL Substrate+5 μL Enzyme (5 ng). Both the enzyme and substrate were added to opposite sides of the well to ensure that there was no interaction until all wells had both components. The plate was then centrifuged gently for 10 seconds, followed by an incubation at 37° C. for 45 minutes. The reaction was quantified by measuring absorbance at 405 nm using the Envision Plate Reader.

[5] = molecular target: T2, Recombinant Human ENPP-1 Protein (purified in-house); assay: ENPP1 Assay (ATP), Example 2; assay type: biochemical; details: Table 5, ATP substrate; read-out: ENPP1 (IC50 μM) ATP
Procedure: Assay Buffer: 1 mM CaCl2, 0.2 mM ZnCl2, 50 mM Tris, pH 9.0. Substrate: 100 μM Adenosine 5′-triphosphate disodium salt hydrate (Promega: V703A)—Assay Conc.: 10 μM. Enzyme: 1 ng/μL Recombinant Human ENPP-1 Protein (purified in-house)—Assay Conc.: 5 ng/well of DMSO in 96-well white assay plates. Cell Titer Glo (Promega, cat #G7572).
as §1, with “by” for “by an”, “RT” for “37° C.”, “20 minutes. To detect levels of ATP, Cell Titer Glo was added 1:1 to each well and incubated for 10” for “45”, “luminescence” for “absorbance at 405 nm”

[6] = Physicochemical profile of 107-02 (PSA, Log P, Log S, solubility)
Caco-2 = Caco-2 permeability; assay type: in vitro ADME
PgP = PgP (Homo sapiens (Human), UniProt P08183); assay: PgP Inhibition; assay type: in vitro ADME
ENPP = assay: Selectivity
Mouse PK Profile = assay type: in vivo
KPC mouse model of PDAC = assay: Tumor growth in KPC mouse model of PDAC; assay type: in vivo; details: once daily via IP at 20 mg/kg, FIG. 15B
Source text: FIG. 15A a pharmacokinetic (PK) plasma concentration chart for compound 107-02. FIG. 15B is a tumor growth inhibition curve for compound 107-02 following in vivo administration. […] FIGS. 15C and 15D are flowcytometric charts of excised tumors following administration of compound 107-02. At the end of the study, tumors were excised and analyzed for T-cells and tumor-associated macrophages using flow cytometry. *p<0.05.

T2 sequence (P22413 whole entry, looked up): as the sequence (P22413 whole entry, looked up, change not shown) above
Sequence of PgP (P08183 whole entry): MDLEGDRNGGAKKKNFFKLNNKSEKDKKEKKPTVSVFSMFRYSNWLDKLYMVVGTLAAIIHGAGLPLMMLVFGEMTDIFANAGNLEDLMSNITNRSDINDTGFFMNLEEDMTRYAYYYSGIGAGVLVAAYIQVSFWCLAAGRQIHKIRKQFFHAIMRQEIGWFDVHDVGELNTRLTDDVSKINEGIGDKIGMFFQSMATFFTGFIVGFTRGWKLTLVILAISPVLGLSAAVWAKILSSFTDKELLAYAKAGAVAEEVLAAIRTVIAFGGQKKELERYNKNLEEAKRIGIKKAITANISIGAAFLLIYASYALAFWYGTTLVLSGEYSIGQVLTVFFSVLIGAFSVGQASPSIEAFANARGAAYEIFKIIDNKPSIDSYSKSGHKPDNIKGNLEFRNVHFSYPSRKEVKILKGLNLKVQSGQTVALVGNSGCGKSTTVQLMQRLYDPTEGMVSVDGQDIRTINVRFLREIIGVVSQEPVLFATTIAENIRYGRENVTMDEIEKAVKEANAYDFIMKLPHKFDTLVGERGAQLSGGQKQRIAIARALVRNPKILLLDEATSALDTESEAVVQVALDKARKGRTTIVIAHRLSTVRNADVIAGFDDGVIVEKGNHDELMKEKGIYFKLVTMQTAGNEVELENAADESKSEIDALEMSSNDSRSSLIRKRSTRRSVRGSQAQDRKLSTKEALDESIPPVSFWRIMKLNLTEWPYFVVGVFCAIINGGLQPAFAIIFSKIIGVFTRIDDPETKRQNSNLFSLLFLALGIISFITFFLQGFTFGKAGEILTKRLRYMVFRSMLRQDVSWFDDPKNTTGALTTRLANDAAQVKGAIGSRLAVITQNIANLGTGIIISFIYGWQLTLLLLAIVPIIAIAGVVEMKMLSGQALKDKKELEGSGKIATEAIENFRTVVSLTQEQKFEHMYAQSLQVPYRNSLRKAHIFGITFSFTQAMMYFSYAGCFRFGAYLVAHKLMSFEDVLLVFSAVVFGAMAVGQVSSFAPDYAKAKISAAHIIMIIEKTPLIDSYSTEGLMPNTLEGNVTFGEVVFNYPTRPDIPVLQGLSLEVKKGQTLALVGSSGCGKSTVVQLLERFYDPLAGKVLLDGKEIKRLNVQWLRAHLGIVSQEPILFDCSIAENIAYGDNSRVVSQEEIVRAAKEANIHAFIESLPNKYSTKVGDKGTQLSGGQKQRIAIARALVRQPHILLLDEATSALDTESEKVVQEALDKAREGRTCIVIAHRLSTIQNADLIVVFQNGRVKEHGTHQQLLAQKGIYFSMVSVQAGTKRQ

SMILES: COc1ccc(NC(=O)CSc2nc3c(C)c(C#N)ncc3[nH]2)cc1OP(=O)(O)O [Compound 107-02, 5-(2-((6-Cyano-7-methyl-3H-imidazo[4,5-c]pyridin-2-yl)thio)acetamido)-2-methoxyphenyl dihydrogen phosphate]
- Tm (° C.) (ENPP1 protein [1]; Table 2, FIG. 7, 100 μM drug, 1.0 μg ENPP1, NT 60.05): 63.89 °C
- ΔTm at 100 µM (ENPP1 protein [1]; read-out: ΔTm (° C.)): 3.84 °C
- total mineralization (Saos-2 Cells): significant decrease
- IRF-3 response [2]: significant increase
- enzymatic activity (ENPP1 protein [3]): significant decrease
- IC50 [4]: 0.742 µM
- IC50 [5]: 0.211 µM
- solubility [6]: 640 µg/mL
- logP ([6]; pH 7.4): 0.009
- Caco2 (Caco-2; first entry (Caco2)): −5.28
- Caco-2 (Caco-2; second entry (Caco-2)): −4.867
- PgP Inhibition (PgP): Negative
- Selectivity (ENPP): Highly selective ENPPi
- Mouse PK Profile CO (Mouse PK Profile): 2840.69 ng/mL
- AUC(0-t) (Mouse PK Profile; plasma): 1640 ng·h/mL
- half-life (Mouse PK Profile; plasma): 1.83 h
- AUC(0-inf) (Mouse PK Profile; plasma, read-out: AUCINF obs): 1650 ng·h/mL
- clearance (Mouse PK Profile; plasma, read-out: CL obs): 22.1 mL/min/kg
- tumor growth of KPC mouse model of PDAC (KPC mouse model of PDAC): inhibits tumor growth
